For this experiment, the target named is T1, C-terminal GST-tagged, recombinant, human IGF-1R, amino acids 954-1367 (Homo sapiens, UniProt P08069).
T1 construct: human IGF-1R, amino acids 954-1367 expressed by baculovirus in Sf21 cells; GST (C); purchased Cell Signaling Technology; host or cells: baculovirus in Sf21 cells
T1 sequence (P08069 954-1367): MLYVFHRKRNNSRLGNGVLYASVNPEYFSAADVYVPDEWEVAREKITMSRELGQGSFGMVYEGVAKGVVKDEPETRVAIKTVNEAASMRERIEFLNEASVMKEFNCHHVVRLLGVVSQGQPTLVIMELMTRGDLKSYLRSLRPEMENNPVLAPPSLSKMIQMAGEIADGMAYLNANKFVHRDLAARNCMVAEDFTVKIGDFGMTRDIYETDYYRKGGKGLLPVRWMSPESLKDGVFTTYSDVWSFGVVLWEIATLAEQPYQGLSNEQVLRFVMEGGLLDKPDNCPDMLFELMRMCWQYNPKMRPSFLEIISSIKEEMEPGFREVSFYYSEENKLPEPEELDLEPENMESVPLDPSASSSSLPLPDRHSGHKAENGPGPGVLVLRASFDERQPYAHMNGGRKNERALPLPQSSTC
Description: IGF-1R homogenous time-resolved fluorescence (HTRF) in vitro kinase assay. The settings on record: IGF-1R kinase, ATP 50 μM final, biotinylated peptide substrate 0.5 μM, 60 minutes at room temperature. Format: biochemical. As for the experimental part: IGF-1R kinase activity was assayed by a homogenous time-resolved fluorescence (HTRF) in vitro kinase assay (Mathis, G., HTRF(R) Technology. J Biomol Screen, 1999. 4(6): p. 309-314). Specifically, 10 μL C-terminal GST-tagged, recombinant, human IGF-1R, amino acids 954-1367 expressed by baculovirus in Sf21 cells (Cell Signaling Technology) was mixed with 10 μL inhibitor (various concentrations, 2% final DMSO) and 10 μL of ATP (50 μM final concentration) in reaction buffer (50 mM HEPES, pH 7.5, 10 mM MgCl2, 2 mM MnCl2, 0.1% BSA and 1 mM DTT, 40 μL final volume). The reaction was initiated by addition of 10 μL of biotinylated peptide substrate (Biotin-Ahx-[…], 0.5 μM final concentration) in a black 384-well plate (Packard). After 60 minutes incubation at room temperature, the reaction was quenched by addition of 60 μL stop/revelation buffer to give 30 mM EDTA, 1 μg/mL streptavidin-APC (Prozyme), 50 ng/mL anti-phosphotyrosine mAb PT66-K Europium Cryptate, 30 mM HEPES, pH 7.5, 120 mM KF, 0.005% Tween-20, 0.05% BSA). The quenched reaction was allowed to stand at room temperature for 1 hour and then read in a time-resolved fluorescence detector (Envision, Perkin Elmer) at 615 nm and 665 nm simultaneously. The ratio between the signal of 615 nm and 665 nm was used in the calculation of the IC50.
Turning to `O=C1CCCN1c1cccc(Nc2nccc(-c3c(-c4ccc5[nH]c(Cc6ccccc6)nc5c4)nc4ccccn34)n2)c1` [Example 1, 1-[3-({4-[2-(2-benzyl-1H-benzimidazol-5-yl)imidazo[1,2-a]pyridin-3-yl]pyrimidin-2-yl}amino)phenyl]pyrrolidin-2-one], the IC50 was 10 to 50 nM. In the case of `CN(C)CCc1cccc(Nc2nccc(-c3c(-c4ccc5nc(Cc6ccccc6)[nH]c5c4)nc4ccccn34)n2)c1` [Example 2, 4-[2-(2-benzyl-1H-benzimidazol-6-yl)imidazo[1,2-a]pyridin-3-yl]-N-{3-[2-(dimethylamino)ethyl]phenyl}pyrimidin-2-amine] it was less than 10 nM; in that of `COc1ccccc1Cc1nc2cc(-c3nc4ccccn4c3-c3ccnc(Nc4cccc(CCN(C)C)c4)n3)ccc2[nH]1` [Example 3, N-{3-[2-(dimethylamino)ethyl]phenyl}-4-{2-[2-(2-methoxybenzyl)-1H-benzimidazol-5-yl]imidazo[1,2-a]pyridin-3-yl}pyrimidin-2-amine], less than 10 nM.

As to `c1ccc(Cc2nc3cc(-c4nc5ccccn5c4-c4ccnc(Nc5ccccc5)n4)ccc3[nH]2)cc1` [Example 4, 4-[2-(2-benzyl-1H-benzimidazol-5-yl)imidazo[1,2-a]pyridin-3-yl]-N-phenylpyrimidin-2-amine], the IC50 was in the range of 10 to 50 nM.

Regarding `CN(C)CCc1cccc(Nc2nccc(-c3c(-c4ccc5[nH]c(Cc6ccccc6Cl)nc5c4)nc4ccccn34)n2)c1` [Example 5, 4-{2-[2-(2-chlorobenzyl)-1H-benzimidazol-5-yl]imidazo[1,2-a]pyridin-3-yl}-N-{3-[2-(dimethylamino)ethyl]phenyl}pyrimidin-2-amine], the IC50 was less than 10 nM. Next, `CN(C)CCc1cccc(Nc2nccc(-c3c(-c4ccc5[nH]c(Cc6ccccc6C(F)(F)F)nc5c4)nc4ccccn34)n2)c1` [Example 6, N-{3-[2-(dimethylamino)ethyl]phenyl}-4-(2-{2-[2-(trifluoromethyl)benzyl]-1H-benzimidazol-5-yl}imidazo[1,2-a]pyridin-3-yl)pyrimidin-2-amine]: less than 10 nM; `CN(C)CCc1cccc(Nc2nccc(-c3c(-c4ccc5nc(Cc6ccccc6)[nH]c5c4)nc4sccn34)n2)c1` [Example 7, 4-[6-(2-benzyl-1H-benzimidazol-6-yl)imidazo[2,1-b][1,3]thiazol-5-yl]-N-{3-[2-(dimethylamino)ethyl]phenyl}pyrimidin-2-amine]: less than 10 nM; `COc1ccccc1Cc1nc2ccc(-c3nc4sccn4c3-c3ccnc(Nc4cccc(CCN(C)C)c4)n3)cc2[nH]1` [Example 8, N-{3-[2-(dimethylamino)ethyl]phenyl}-4-{6-[2-(2-methoxybenzyl)-1H-benzimidazol-6-yl]imidazo[2,1-b][1,3]thiazol-5-yl}pyrimidin-2-amine]: less than 10 nM. In the case of `CN(C)CCc1cccc(Nc2nccc(-c3c(-c4ccc5nc(Cc6ccccc6Cl)[nH]c5c4)nc4sccn34)n2)c1` [Example 9, 4-{6-[2-(2-chlorobenzyl)-1H-benzimidazol-6-yl]imidazo[2,1-b][1,3]thiazol-5-yl}-N-{3-[2-(dimethylamino)ethyl]phenyl}pyrimidin-2-amine], the IC50 is less than 10 nM. In the case of `CN(C)CCc1cccc(Nc2nccc(-c3c(-c4ccc5nc(CCc6ccccc6)[nH]c5c4)nc4ccccn34)n2)c1` [Example 10, N-{3-[2-(dimethylamino)ethyl]phenyl}-4-{2-[2-(2-phenylethyl)-1H-benzimidazol-6-yl]imidazo[1,2-a]pyridin-3-yl}pyrimidin-2-amine] it was 10 to 50 nM; in that of `c1ccc(Nc2nccc(-c3c(-c4ccc5nc(-c6ccccc6)[nH]c5c4)nc4ccccn34)n2)cc1` [Example 11, N-phenyl-4-[2-(2-phenyl-1H-benzimidazol-6-yl)imidazo[1,2-a]pyridin-3-yl]pyrimidin-2-amine], 101 to 500 nM; in that of `CN(C)CCc1cccc(Nc2nccc(-c3c(-c4ccc5nc(Nc6ccccc6)[nH]c5c4)nc4ccccn34)n2)c1` [Example 12, 6-{3-[2-({3-[2-(dimethylamino)ethyl]phenyl}amino)pyrimidin-4-yl]imidazo[1,2-a]pyridin-2-yl}-N-phenyl-1H-benzimidazol-2-amine], less than 10 nM.

Turning to `CN(C)CCc1cccc(Nc2nccc(-c3c(-c4ccc5nc(-c6ccccc6)[nH]c5c4)nc4ccccn34)n2)c1` [Example 13, N-{3-[2-(dimethylamino)ethyl]phenyl}-4-[2-(2-phenyl-1H-benzimidazol-6-yl)imidazo[1,2-a]pyridin-3-yl]pyrimidin-2-amine], the 50% inhibitory concentration (IC50) was 10 to 50 nM. Consider `COc1cc(N2CCOCC2)ccc1Nc1nccc(-c2c(-c3ccc4nc(Cc5ccccc5)[nH]c4c3)nc3ccccn23)n1` [Example 14, 4-[2-(2-benzyl-1H-benzimidazol-6-yl)imidazo[1,2-a]pyridin-3-yl]-N-(2-methoxy-4-morpholin-4-ylphenyl)pyrimidin-2-amine], for which the IC50 is less than 10 nM. In the case of `COc1ccccc1Nc1nccc(-c2c(-c3ccc4nc(Cc5ccccc5)[nH]c4c3)nc3ccccn23)n1` [Example 15, 4-[2-(2-benzyl-1H-benzimidazol-6-yl)imidazo[1,2-a]pyridin-3-yl]-N-(2-methoxyphenyl)pyrimidin-2-amine] it was 51 to 100 nM.

On to `CS(=O)(=O)c1cccc(Nc2nccc(-c3c(-c4ccc5nc(Cc6ccccc6)[nH]c5c4)nc4ccccn34)n2)c1` [Example 16, 4-[2-(2-benzyl-1H-benzimidazol-6-yl)imidazo[1,2-a]pyridin-3-yl]-N-[3-(methylsulfonyl)phenyl]pyrimidin-2-amine], for which the IC50 was 51 to 100 nM. Next, `CN(C)S(=O)(=O)c1cccc(Nc2nccc(-c3c(-c4ccc5nc(Cc6ccccc6)[nH]c5c4)nc4ccccn34)n2)c1` [Example 17, 3-({4-[2-(2-benzyl-1H-benzimidazol-6-yl)imidazo[1,2-a]pyridin-3-yl]pyrimidin-2-yl}amino)-N,N-dimethylbenzenesulfonamide]: 101 to 500 nM. As for `CS(=O)(=O)c1ccc(Nc2nccc(-c3c(-c4ccc5nc(Cc6ccccc6)[nH]c5c4)nc4ccccn34)n2)cc1` [Example 18, 4-[2-(2-benzyl-1H-benzimidazol-6-yl)imidazo[1,2-a]pyridin-3-yl]-N-[4-(methylsulfonyl)phenyl]pyrimidin-2-amine], the IC50 is 51 to 100 nM. In the case of `c1ccc(Nc2nccc(-c3c(-c4ccc5nc(Nc6ccccc6)[nH]c5c4)nc4ccccn34)n2)cc1` [Example 19, 6-[3-(2-anilinopyrimidin-4-yl)imidazo[1,2-a]pyridin-2-yl]-N-phenyl-1H-benzimidazol-2-amine] it was greater than 500 nM; in that of `COc1ccccc1Cc1nc2ccc(-c3nc4ccccn4c3-c3ccnc(Nc4ccc(N5CCOCC5)cc4OC)n3)cc2[nH]1` [Example 20, 4-{2-[2-(2-methoxybenzyl)-1H-benzimidazol-6-yl]imidazo[1,2-a]pyridin-3-yl}-N-(2-methoxy-4-morpholin-4-ylphenyl)pyrimidin-2-amine], 51 to 100 nM; in that of `COc1cc(N2CCOCC2)ccc1Nc1nccc(-c2c(-c3ccc4nc(Cc5c(F)cccc5F)[nH]c4c3)nc3ccccn23)n1` [Example 21, 4-{2-[2-(2,6-difluorobenzyl)-1H-benzimidazol-6-yl]imidazo[1,2-a]pyridin-3-yl}-N-(2-methoxy-4-morpholin-4-ylphenyl)pyrimidin-2-amine], 10 to 50 nM.

Usually IC50 stands for the concentration that gives 50% inhibition.

The values above are taken from US8536180B2, “Pyrimidine inhibitors of kinase activity” (AbbVie Inc., priority 2009, dated 2013).
